ChEMBL document CHEMBL1201862, “PubChem BioAssay data set” (2004)
Calls of active or inactive are those of the source.

Tests used:
[1] = inhibitors of intracellular T. cruzi replication, confirmation, NIH3T3 host cells, beta-gal luminescence (AID 2044); type: functional, cell-based;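 further: intracellular parasites grown in NIH/3T3 mouse fibroblasts as host cells; luminescent beta-galactosidase reporter signal from transgenic T. cruzi replicating inside host cells; inhibitors lower the luminescence signal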
[2] = cytotoxicity toward NIH3T3 fibroblasts, dose response, counter-screen, cell-based, ATP luminescence, mouse fibroblasts (AID 2010); type: functional;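 further: cells exposed to compound for about 90 hours before reading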
[3] = target: Sphingosine 1-phosphate receptor 4 (Homo sapiens, UniProt O95977); experiment: Fluorescence dose response cell-based high throughput screening assay for antagonists of the Sphingosine 1-Phosphate Receptor 4 (S1P4). [Related pubchem assays: 1524 (Confirmation in triplicates.), 1510 (Primary screen.)]; type: functional
Sphingosine 1-phosphate receptor 4, sequence (O95977 whole entry): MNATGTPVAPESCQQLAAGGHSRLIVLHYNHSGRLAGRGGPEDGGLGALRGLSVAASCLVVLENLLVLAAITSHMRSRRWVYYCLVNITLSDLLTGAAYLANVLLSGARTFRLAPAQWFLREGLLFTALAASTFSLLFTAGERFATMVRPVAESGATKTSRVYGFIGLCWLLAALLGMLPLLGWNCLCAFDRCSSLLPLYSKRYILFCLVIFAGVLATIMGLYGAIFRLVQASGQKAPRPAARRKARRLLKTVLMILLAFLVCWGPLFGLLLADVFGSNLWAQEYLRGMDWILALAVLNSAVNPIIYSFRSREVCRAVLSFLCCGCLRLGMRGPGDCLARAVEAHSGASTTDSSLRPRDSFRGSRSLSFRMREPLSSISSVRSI

[4] = target: Sphingosine 1-phosphate receptor 1 (Homo sapiens, UniProt P21453); type: functional;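 further: Tango beta-arrestin reporter U2OS cells stimulated with S1P near its EC80; inhibitor potency meaning antagonism of receptor activation by the natural agonist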
Sphingosine 1-phosphate receptor 1, sequence (P21453 whole entry): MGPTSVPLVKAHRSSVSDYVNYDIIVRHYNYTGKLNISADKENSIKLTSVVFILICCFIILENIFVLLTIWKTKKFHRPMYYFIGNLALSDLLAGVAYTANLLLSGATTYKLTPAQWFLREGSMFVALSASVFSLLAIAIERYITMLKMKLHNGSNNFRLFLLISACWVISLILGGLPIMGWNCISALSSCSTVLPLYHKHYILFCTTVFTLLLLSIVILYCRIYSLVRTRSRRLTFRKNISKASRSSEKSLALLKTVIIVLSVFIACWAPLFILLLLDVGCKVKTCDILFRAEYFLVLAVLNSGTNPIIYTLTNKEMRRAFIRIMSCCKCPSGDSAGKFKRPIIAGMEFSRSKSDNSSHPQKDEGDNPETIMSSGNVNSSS

[5] = target: T1, Microphthalmia-associated transcription factor (Homo sapiens, UniProt O75030); experiment: TRPM1 promoter luciferase signal decrease, dose response, MITF inhibitor project, cell-based, SK-MEL-5, cherry-picked, set 3 (AID 493073); type: functional
T1 sequence (O75030 whole entry): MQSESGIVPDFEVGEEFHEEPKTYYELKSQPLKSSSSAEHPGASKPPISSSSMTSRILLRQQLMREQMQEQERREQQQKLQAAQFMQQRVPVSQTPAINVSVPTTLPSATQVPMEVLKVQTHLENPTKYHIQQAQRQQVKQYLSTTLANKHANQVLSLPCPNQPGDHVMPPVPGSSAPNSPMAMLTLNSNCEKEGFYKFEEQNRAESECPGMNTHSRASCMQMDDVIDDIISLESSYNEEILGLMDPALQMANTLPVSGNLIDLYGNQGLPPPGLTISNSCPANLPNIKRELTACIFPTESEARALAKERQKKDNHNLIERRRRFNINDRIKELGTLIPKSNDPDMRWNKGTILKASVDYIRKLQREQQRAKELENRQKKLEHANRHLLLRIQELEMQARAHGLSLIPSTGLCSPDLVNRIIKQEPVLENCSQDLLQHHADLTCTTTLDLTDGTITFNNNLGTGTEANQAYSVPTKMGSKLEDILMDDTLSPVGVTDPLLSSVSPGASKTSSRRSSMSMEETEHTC

Paired box protein Pax-8 = Paired box protein Pax-8 (Homo sapiens, UniProt Q06710); experiment: inhibitors of PAX8-driven TPO luciferase reporter, dose response, RMG-I cells, cherry-pick (AID 687027); type: functional, cell-based;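 further: luciferase reporter driven by Pax8 target thyroperoxidase promoter measured by SteadyGlo luminescence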
Paired box protein Pax-8, sequence (Q06710 whole entry): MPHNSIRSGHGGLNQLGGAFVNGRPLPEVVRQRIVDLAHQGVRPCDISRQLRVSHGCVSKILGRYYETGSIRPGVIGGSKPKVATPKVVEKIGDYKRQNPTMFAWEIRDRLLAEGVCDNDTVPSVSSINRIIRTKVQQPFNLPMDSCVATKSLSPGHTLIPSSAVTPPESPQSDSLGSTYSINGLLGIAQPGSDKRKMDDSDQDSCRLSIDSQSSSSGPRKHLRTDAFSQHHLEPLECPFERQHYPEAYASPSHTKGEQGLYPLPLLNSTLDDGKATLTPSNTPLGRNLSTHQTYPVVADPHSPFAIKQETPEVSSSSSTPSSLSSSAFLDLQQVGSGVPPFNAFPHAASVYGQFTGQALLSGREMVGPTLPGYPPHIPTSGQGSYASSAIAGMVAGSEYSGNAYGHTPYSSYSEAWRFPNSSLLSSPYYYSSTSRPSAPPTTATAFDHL

[6] = inhibitors of PGC1a acetylation in cells, dose response, cell-based, cherry-picked samples (AID 720514); type: functional;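 further: potency may reflect raised or lowered acetylation signal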
[7] = A549 cell cytotoxicity, dose response, cytotoxicity control, plate reader, cherry-pick, antagonist series (AID 743412); type: functional, cell-based
[8] = HepG2 cell cytotoxicity, dose response, cytotoxicity control, plate reader, cherry-pick, antagonist series (AID 743416); type: functional, cell-based
[9] = LGR2 antagonists, dose response, cell-based, HEK293, CRE-luciferase reporter, cherry pick, set 2 (AID 743343); type: functional;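 further: transfected cells were stimulated with diluted bursicon conditioned medium after compound addition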
[10] = MC4R antagonists, dose response, counter-screen for LGR2 antagonist project, cell-based, plate reader, cherry pick (AID 743444); type: functional;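 further: transfected HEK 293 cells stimulated with alpha-MSH peptide; potency of inhibitors of the alpha-MSH evoked signal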
[11] = HEK293 cell cytotoxicity, dose response, cytotoxicity control, plate reader, cherry-picked samples (AID 743446); type: functional, cell-based
NS3 = NS3 (Hepatitis C virus, UniProt A3EZJ3); experiment: PubChem AID 2173; parameters: species or system Hepacivirus hominis
NS3, sequence (A3EZJ3 whole entry): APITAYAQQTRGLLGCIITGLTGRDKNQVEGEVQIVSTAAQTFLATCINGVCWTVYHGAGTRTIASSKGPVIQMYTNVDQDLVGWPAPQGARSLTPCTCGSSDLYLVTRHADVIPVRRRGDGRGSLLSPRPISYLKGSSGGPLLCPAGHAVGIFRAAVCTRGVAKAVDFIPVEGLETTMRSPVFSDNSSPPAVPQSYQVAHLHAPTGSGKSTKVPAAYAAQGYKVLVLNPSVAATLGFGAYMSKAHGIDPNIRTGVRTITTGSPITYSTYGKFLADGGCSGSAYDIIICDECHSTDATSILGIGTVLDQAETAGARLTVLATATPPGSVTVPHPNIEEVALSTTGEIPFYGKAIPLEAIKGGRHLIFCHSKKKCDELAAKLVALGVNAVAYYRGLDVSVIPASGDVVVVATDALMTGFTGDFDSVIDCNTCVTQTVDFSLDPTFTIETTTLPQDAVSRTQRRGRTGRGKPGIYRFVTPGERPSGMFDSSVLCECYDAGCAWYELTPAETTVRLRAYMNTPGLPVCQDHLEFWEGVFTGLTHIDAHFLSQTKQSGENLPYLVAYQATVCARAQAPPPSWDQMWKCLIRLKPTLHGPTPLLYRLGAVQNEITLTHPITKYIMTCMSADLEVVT

[12] = target: T2, Heat shock factor protein 1 (Mus musculus, UniProt P38532); experiment: HSF1 potentiators in luciferase reporter cells, confirmation, cell-based, NIH3T3, luminescence, dose retest (AID 435004); type: functional;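 further: stress induced by proteasome inhibitor MG132 added 30 min after compound; luciferase reporter driven by HSF1 response element in NIH3T3 cells; actives raise luminescence as potentiators of the MG132 stress response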
T2 sequence (P38532 whole entry): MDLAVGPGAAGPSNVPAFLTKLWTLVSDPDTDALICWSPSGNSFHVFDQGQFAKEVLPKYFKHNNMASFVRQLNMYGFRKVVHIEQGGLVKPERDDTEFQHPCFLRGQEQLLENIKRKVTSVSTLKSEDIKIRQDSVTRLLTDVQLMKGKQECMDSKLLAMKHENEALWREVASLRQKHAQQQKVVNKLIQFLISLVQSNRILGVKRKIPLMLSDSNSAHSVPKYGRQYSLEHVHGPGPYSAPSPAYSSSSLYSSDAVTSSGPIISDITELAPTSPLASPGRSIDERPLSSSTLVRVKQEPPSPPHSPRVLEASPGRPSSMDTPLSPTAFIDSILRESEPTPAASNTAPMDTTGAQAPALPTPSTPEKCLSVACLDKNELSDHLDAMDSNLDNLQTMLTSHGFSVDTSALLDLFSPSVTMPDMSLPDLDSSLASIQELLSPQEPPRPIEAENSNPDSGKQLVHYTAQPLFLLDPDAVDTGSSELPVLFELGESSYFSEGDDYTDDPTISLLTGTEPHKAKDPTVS

[13] = target: T3, Corticotropin-releasing factor receptor 2/Corticotropin-releasing factor-binding protein (Homo sapiens, UniProt P24387+Q13324); experiment: activators of CRF receptor 2 with binding protein – uHTS hits, confirmation (AID 602473); type: functional; conditions: read-out: EC50_Mean
T3 sequence (Q13324 whole entry): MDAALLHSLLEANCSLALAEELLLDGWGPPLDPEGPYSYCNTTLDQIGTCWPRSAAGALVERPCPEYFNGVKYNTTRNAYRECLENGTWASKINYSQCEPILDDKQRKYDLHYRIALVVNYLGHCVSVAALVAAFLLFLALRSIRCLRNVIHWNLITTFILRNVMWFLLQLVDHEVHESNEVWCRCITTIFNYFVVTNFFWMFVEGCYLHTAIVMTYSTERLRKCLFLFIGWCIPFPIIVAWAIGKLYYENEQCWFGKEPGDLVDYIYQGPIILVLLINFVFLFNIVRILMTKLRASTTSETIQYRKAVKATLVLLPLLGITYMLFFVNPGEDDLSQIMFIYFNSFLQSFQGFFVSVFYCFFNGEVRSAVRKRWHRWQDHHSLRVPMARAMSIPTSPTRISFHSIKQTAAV
T3 sequence (P24387 whole entry): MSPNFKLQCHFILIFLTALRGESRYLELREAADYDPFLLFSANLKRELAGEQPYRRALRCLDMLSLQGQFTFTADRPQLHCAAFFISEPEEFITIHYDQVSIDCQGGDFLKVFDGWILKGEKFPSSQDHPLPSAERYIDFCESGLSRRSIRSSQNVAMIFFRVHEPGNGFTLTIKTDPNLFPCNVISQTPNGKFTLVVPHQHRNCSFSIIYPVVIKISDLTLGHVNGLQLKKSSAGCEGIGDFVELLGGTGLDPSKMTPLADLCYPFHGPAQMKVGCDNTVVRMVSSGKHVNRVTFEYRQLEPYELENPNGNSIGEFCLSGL

Beta-galactosidase [14] = target: T4, Beta-galactosidase (Escherichia coli, UniProt Q8VNN2); experiment: PubChem AID 485352; type: functional
T4 sequence (Q8VNN2 whole entry): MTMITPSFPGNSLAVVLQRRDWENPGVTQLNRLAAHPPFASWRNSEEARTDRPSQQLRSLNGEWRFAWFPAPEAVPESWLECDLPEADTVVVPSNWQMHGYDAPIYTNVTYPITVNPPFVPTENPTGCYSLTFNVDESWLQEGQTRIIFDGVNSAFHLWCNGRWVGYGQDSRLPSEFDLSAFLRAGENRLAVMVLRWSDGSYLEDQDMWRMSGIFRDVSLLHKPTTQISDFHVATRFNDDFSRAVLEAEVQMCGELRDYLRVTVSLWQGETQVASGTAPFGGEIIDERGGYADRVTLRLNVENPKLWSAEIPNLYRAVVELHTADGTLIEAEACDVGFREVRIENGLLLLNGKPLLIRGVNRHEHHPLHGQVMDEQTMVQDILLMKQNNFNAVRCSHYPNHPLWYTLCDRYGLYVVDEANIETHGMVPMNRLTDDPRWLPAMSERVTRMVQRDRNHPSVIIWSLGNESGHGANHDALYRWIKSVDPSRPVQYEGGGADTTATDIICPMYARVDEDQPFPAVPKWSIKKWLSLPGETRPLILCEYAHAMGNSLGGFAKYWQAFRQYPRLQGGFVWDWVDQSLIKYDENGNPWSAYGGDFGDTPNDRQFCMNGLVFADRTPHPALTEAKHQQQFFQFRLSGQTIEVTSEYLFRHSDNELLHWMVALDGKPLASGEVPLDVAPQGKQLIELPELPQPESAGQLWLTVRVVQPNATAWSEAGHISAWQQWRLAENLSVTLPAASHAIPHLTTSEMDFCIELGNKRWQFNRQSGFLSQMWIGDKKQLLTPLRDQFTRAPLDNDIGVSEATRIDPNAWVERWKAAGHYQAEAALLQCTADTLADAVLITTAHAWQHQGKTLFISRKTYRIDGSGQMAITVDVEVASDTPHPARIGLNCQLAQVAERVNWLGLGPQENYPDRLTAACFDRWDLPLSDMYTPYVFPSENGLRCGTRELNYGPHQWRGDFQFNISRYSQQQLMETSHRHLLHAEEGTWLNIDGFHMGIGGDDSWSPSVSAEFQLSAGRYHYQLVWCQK

[15] = target: T5, Type-1 angiotensin II receptor (Homo sapiens, UniProt P30556); experiment: AT1 receptor antagonists, dose response, selectivity assay for APJ receptor antagonist project, cell-based, uHTS hits (AID 463214); type: functional;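 further: antagonist potency against angiotensin II stimulated AT1 response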
T5 sequence (P30556 whole entry): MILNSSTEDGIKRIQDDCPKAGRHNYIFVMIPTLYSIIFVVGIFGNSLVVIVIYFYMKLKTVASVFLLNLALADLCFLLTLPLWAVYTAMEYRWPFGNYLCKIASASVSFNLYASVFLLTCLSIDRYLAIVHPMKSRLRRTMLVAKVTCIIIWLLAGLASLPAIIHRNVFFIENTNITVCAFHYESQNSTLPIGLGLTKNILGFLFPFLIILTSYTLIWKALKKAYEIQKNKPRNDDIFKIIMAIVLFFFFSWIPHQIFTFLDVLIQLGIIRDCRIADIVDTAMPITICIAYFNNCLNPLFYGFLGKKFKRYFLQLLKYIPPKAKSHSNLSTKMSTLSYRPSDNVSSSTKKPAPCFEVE

[16] = target: T6, Kappa-type opioid receptor (Homo sapiens, UniProt P41145); type: functional
T6 sequence (P41145 whole entry): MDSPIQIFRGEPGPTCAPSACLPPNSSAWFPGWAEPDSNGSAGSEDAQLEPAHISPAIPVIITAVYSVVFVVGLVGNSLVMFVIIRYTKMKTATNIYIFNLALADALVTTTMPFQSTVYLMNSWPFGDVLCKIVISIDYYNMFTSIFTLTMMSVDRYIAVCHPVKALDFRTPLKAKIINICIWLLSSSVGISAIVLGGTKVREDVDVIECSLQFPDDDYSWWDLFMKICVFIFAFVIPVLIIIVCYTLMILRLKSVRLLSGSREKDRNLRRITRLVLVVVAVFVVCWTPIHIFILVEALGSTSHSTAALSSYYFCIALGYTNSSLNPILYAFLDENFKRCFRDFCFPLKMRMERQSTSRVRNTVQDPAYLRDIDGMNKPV

Beta-galactosidase [17] = target: T4, Beta-galactosidase; type: functional
[18] = target: T6, Kappa-type opioid receptor; type: functional; remark: listed apart in the source
CHO = experiment: cytotoxicity in TLR9-MyD88 CHO cells, dose response, cytotoxicity control for TLR9-MyD88 binding inhibitor project, cell-based, luminescence (AID 588339); type: functional, hamster; conditions: Cricetulus griseus;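 further: CHO cells stably coexpressing TLR9 and MyD88 fusions from primary screen; compound exposure lasted 48 hours before viability readout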
[19] = target: T7, Replicative DNA helicase DnaB (Mycobacterium tuberculosis, UniProt P9WMR3); experiment: DnaB intein splicing inhibitors, dose response, biochemical, cell-free fluorescence (AID 449749); type: functional
T7 sequence (P9WMR3 whole entry): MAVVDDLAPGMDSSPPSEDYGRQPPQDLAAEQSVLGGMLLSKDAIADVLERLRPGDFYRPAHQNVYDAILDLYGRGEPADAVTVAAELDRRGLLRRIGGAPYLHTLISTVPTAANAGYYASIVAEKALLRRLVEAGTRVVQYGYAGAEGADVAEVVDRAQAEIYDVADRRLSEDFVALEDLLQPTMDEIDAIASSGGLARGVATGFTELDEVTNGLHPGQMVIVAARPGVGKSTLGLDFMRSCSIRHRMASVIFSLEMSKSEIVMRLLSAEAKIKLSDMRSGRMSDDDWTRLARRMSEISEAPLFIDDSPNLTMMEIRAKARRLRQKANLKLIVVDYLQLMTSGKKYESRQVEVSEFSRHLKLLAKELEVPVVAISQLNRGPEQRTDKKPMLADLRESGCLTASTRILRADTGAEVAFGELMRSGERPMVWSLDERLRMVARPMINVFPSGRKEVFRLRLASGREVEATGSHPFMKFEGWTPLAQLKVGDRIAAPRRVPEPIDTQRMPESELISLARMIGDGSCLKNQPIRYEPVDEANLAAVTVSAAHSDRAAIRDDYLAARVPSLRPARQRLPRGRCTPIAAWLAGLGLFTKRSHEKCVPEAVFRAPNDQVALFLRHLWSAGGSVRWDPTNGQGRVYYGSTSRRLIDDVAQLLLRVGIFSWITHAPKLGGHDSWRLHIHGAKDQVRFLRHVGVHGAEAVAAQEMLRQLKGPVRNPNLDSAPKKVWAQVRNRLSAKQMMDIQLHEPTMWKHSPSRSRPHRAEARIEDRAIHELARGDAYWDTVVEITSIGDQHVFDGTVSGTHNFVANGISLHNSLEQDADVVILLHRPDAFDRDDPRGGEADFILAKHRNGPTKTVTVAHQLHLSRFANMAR

Protein RecA = target: T8, Protein RecA (Mycobacterium tuberculosis, UniProt P9WHJ3); experiment: Fluorescence Cell-Free Homogeneous Dose Retest to Identify Inhibitors of RecA-Intein Splicing Activity. [Related pubchem assays (depositor defined):AID2097, AID2223, AID489010, AID492950]; type: functional
T8 sequence (P9WHJ3 whole entry): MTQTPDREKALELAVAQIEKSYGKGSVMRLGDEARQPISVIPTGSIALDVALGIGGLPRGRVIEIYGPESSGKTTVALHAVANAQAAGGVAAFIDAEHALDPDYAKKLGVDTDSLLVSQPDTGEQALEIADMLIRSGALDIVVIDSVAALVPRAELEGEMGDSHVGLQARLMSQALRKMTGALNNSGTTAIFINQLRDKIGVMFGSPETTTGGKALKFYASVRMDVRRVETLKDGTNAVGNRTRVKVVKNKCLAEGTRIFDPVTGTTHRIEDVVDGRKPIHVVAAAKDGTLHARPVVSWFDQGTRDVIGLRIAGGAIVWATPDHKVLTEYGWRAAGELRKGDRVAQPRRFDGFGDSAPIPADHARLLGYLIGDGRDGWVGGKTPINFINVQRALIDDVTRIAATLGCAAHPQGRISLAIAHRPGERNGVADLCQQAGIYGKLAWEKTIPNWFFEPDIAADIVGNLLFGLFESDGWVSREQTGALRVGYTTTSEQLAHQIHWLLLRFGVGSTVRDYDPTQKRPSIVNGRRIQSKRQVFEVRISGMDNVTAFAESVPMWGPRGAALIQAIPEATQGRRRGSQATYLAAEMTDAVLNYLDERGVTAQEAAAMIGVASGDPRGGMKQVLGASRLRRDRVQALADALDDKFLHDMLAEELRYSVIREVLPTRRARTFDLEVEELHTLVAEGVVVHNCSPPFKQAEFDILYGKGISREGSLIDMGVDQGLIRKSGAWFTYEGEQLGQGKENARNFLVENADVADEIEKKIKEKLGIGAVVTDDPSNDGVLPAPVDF

Beta Lactamase = Beta Lactamase (Pseudomonas aeruginosa, UniProt Q932Y6); experiment: beta-lactamase reporter inhibitor potency, dose response, artefact control for TLR9-MyD88 binding inhibitor project, BLA reporter cells, FRET fluorescence (AID 588341); type: cell-based;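 further: cell based assay in CHO-K1 cells stably expressing beta-lactamase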
Beta Lactamase, sequence (Q932Y6 whole entry): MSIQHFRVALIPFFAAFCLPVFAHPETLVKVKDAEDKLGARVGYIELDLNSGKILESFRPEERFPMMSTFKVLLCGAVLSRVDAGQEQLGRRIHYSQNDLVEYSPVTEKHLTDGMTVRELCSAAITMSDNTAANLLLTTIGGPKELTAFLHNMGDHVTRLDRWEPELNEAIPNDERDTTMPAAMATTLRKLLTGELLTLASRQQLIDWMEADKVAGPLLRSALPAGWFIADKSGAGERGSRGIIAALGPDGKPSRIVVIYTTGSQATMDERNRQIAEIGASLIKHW

INS1 = experiment: beta cell apoptosis inhibitors, cytokine rescue, dose response, luminescence, retest (AID 449756); type: functional, cell-based; conditions: Rattus norvegicus;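 further: cell death triggered by IL-1 beta plus TNF-alpha plus IFN-gamma mixture; protective hits raise ATP signal compared with cytokine alone wells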
[20] = miR-122 activators in hepatoma reporter cells, dose response, cell-based, Huh7 psiCHECK-miR122, Renilla luciferase, cherry-picked (AID 651956); type: functional;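 further: huh7 hepatoma cells stably carrying a psiCHECK-2 miR-122 sensor plasmid; renilla luciferase signal reporting endogenous miR-122 activity after 48 h compound exposure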
[21] = HEK293T cytotoxicity, dose response, cytotoxicity control for miR-122 modulator project, cell-based, inhibitor set, cherry-pick, set 2 (AID 720697); type: functional
[22] = HEK293T cytotoxicity, dose response, cytotoxicity control for miR-122 modulator project, cell-based, activator set, cherry-pick (AID 720690); type: functional;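 further: HEK293T human cells scored for general mammalian cytotoxicity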

O=C1CN(C(=O)Cn2ncc(Cl)c(Cl)c2=O)c2ccccc2N1
13.6 µM (not active): IC50 [4]
active: EC50 [1] 2.11 µM | EC50 [2] 2.61 µM | IC50 [3] 3.18 µM | AC50 [5] 8.67 µM | AC50 (Paired box protein Pax-8) 2.19 µM | AC50 [6] 4.16 µM | AC50 [7] 11.8 µM | AC50 [8] 25.6 µM | AC50 [9] 18.7 µM | AC50 [10] 15.4 µM | AC50 [11] 8.59 µM

Cc1cccc(N2C(=O)C(O)=C(C(=O)c3cccs3)C2c2ccc(C(C)C)cc2)n1 (stereo unspecified)
active: IC50 (NS3) 5.88 µM | EC50 [13] 11.3 µM
inactive: EC50 [12] > 260 µM

CCn1c(Cl)c(C=O)s/c1=N\S(=O)(=O)c1ccccc1
inactive: EC50 (Beta-galactosidase [14]) > 40 µM | EC50 (Beta-galactosidase [17]) > 31.5 µM | IC50 (Beta Lactamase) 12.5 µM
inconclusive: EC50 [12] > 260 µM
4.85 µM: IC50 [18]
active: IC50 [15] 2.24 µM | IC50 [16] 11.8 µM | IC50 [3] 1.48 µM | IC50 [4] 7.5 µM | IC50 (CHO) 0.952 µM | AC50 [19] 18.2 µM | EC50 (Protein RecA) 1.3 µM | AC50 (INS1) 5.12 µM | AC50 [20] 7.8 µM | AC50 [21] 1.84 µM | AC50 [22] 3.2 µM
